“Also recorded” adds a separate entry of the source.
Columns and labels:
Assay type in all cases: cell-based, human
U87H-GFP [1] = assay: Fluorescence microscopy of H-GFP gene expression; conditions: for increase in the green fluorescent signal: 48 h; for upregulation of the CMV promoter, visible due to increased GFP fluorescence: very low concentrations, within two days, after removal of hygromycin
Method: U87H-GFP and the parent cells were seeded at 1-2×10^5 cells/well on 6-well plates (Nuclon, NUNC), using D-MEM without hygromycin B, and incubated for adhesion for 24 h. This was followed by adding 5-azacytidine and trichostatin A (Sigma Chemicals, Co.) at different final concentrations (2.5-5-10-20-40 μM for Aza; from 10 nM to 3 μM for TSA) to the culture medium. After two days of treatment, fluorescence microscopy and flow cytometry analyses were carried out. Approximately 10^5 cells of each cell line were seeded on polylysine-coated coverslips, treated with different concentrations of Aza and TSA for 48 h and then fixed in 5% formaldehyde at room temperature for 30 min. This was followed by analyzing all samples under a fluorescence microscope (Axiophot, Zeiss, Germany) and recording various images which correspond to the different final concentrations of each medicament (FIG. 1).

tumor cells U87 = assay: Change in cell morphology (differentiation); conditions: high concentrations
U87 [2] = assay: Cell cycle analysis (BrdU incorporation / 7-AAD, FACS), parent line; conditions: U87, 5 μM Aza, 2 days
Method: (§1) U87H-GFP and the parent cells were seeded at 5×10^3/cm^2 in T25 flasks (Nuclon, NUNC), using D-MEM without hygromycin B for both cell lines. Half of the flasks were treated with 5 μM Aza and the other, as a negative control, without any medicaments. After 42 h, BrdU was added to the medium (final concentration of 10 μM), and 6 h later the cells were prepared for cell cycle analysis. The cells were harvested, centrifuged at 500×g for 5 min and fixed in chilled 70% strength ethanol for 20 min. BrdU incorporation into the DNA was detected by using 3×10^5 cells of each Aza-treated or untreated cell line. PBS 1×/0.5% BSA (washing buffer) was added, and the cells were centrifuged at 500×g for 5 min. The pellet was then resuspended in a denaturing solution (HCl 1M, PBS 0.5×BSA 0.5%) and washed again after 20 min. This was followed by re-suspending the pellet in 0.1M sodium borate (Na2B4O7), pH 8.5, for 2 min and then adding the washing buffer. After this passage, the total volume of each sample was divided into two halves (one half being used for the isotype antibody, the other one for the BrdU antibody), centrifuged at 500×g for 5 min, resuspended in the buffer containing the anti-isotype or anti-BrdU monoclonal antibodies (Becton Dickinson) and, after 30 min, washed with PBS 1×/0.5% BSA. The supernatant was discarded and the pellet resuspended in RNAse A (final concentration 100 μg/ml); the DNA was stained by also adding to the solution 7-AAD (Via-PROBE, Becton Dickinson). After 1 h (in the dark), the samples were washed and then resuspended in PBS 1×/0.5% BSA. DNA fluorescence of the nuclei (approximately 10^4 nuclei were analyzed for each cell population) was measured by means of the abovementioned FACScan flow cytometer (Becton Dickinson) and the percentages of cells in the G0 and G1, S, G2 and M phases of the cell cycle were analyzed on the basis of the FACScan software programs.

U87 [3] = assay: Flow cytometry (FACS) of background fluorescence in parent cell line (negative control line); conditions: 48 h, parent cells
Excerpt: U87H-GFP is a cell line derived from the human glioblastoma cell line U87 after stable transfection with plasmid pCMV-hygroEGFP. This plasmid which is integrated into the genomic DNA is derived from PCR-Script™ (Stratagene) and carries a fusion gene downstream of the human CMV promoter. This fusion gene contains the gene for resistance to hygromycin, which is linked to the gene coding for the enhanced green fluorescent protein (EGFP). The resulting gene (called H-GFP) codes for a protein which imparts resistance to hygromycin B and which can be readily detected by fluorescence microscopy and flow cytometry analysis. […] U87H-GFP and the parent line U87 were cultured in Dulbecco's Modified Eagle's Medium, (D-MEM, low glucose, Gibco, BRL) supplemented with 10% fetal calf serum (Seromed), 100 units/ml penicillin, 100 μg/ml streptomycin and 1 μg/ml amphotericine B (Gibco, BRL) at 37° C. in a humidified atmosphere containing 5% CO2. For the U87H-GFP cell line, the culture medium was supplemented with 600 units/ml hygromycin B (Calbiochem). U87H-GFP and the parent cells were seeded at 1-2×10^5 cells/well on 6-well plates (Nuclon, NUNC), using D-MEM without hygromycin B, and incubated for adhesion for 24 h. This was followed by adding 5-azacytidine and trichostatin A (Sigma Chemicals, Co.) at different final concentrations (2.5-5-10-20-40 μM for Aza; from 10 nM to 3 μM for TSA) to the culture medium. After two days of treatment, fluorescence microscopy and flow cytometry analyses were carried out. In order to prepare samples for FACS analysis, cells were incubated in the 6-well plates in 0.05% trypsin containing 0.5 mM EDTA (Gibco, BRL) at 37° C. for 5 min, followed by stopping the trypsin action by adding two volumes of culture medium. The cells were harvested, centrifuged at 500×g for 5 min and resuspended in 1 ml complete D-MEM. In order to stain dead cells, propidium iodide (final concentration 10 μg/ml) was added to each sample. The cells were then again centrifuged and resuspended in phosphate-buffered saline (PBS 1×, pH 7.4), before analyzing them by means of FACS. The cells were analyzed using FACScalibur (Becton Dickinson) with the flow rate corresponding to approximately 500 events/s. In order to exactly define a cell population and to exclude cell debris and aggregates, a region of interest was established on the dot plot (FSC compared to SSC). […] The fluorescence intensity of individual cells was measured on a logarithmic scale, each logarithmic histogram representing 2×10^4 counted events. The fluorescence intensity mean value (MFI) was the parameter used for defining the increase in the fluorescence intensity in each cell population.

U87H-GFP [4] = assay: Cell cycle analysis (BrdU incorporation / 7-AAD, FACS), reporter line; conditions: 5 μM Aza, 2 days
Method: as §1

U87H-GFP [5] = assay: Flow cytometry (FACS) of H-GFP fusion gene expression under the hCMV promoter in reporter cell line
U87H-GFP [6] = assay: as above; conditions: 48 h; for increase in the fluorescence intensity mean value: compared to untreated cells
Excerpt: U87H-GFP is a cell line derived from the human glioblastoma cell line U87 after stable transfection with plasmid pCMV-hygroEGFP. This plasmid which is integrated into the genomic DNA is derived from PCR-Script™ (Stratagene) and carries a fusion gene downstream of the human CMV promoter. This fusion gene contains the gene for resistance to hygromycin, which is linked to the gene coding for the enhanced green fluorescent protein (EGFP). The resulting gene (called H-GFP) codes for a protein which imparts resistance to hygromycin B and which can be readily detected by fluorescence microscopy and flow cytometry analysis. […] U87H-GFP and the parent line U87 were cultured in Dulbecco's Modified Eagle's Medium, (D-MEM, low glucose, Gibco, BRL) supplemented with 10% fetal calf serum (Seromed), 100 units/ml penicillin, 100 μg/ml streptomycin and 1 μg/ml amphotericine B (Gibco, BRL) at 37° C. in a humidified atmosphere containing 5% CO2. For the U87H-GFP cell line, the culture medium was supplemented with 600 units/ml hygromycin B (Calbiochem). U87H-GFP and the parent cells were seeded at 1-2×10^5 cells/well on 6-well plates (Nuclon, NUNC), using D-MEM without hygromycin B, and incubated for adhesion for 24 h. This was followed by adding 5-azacytidine and trichostatin A (Sigma Chemicals, Co.) at different final concentrations (2.5-5-10-20-40 μM for Aza; from 10 nM to 3 μM for TSA) to the culture medium. After two days of treatment, fluorescence microscopy and flow cytometry analyses were carried out. In order to prepare samples for FACS analysis, cells were incubated in the 6-well plates in 0.05% trypsin containing 0.5 mM EDTA (Gibco, BRL) at 37° C. for 5 min, followed by stopping the trypsin action by adding two volumes of culture medium. The cells were harvested, centrifuged at 500×g for 5 min and resuspended in 1 ml complete D-MEM. In order to stain dead cells, propidium iodide (final concentration 10 μg/ml) was added to each sample. The cells were then again centrifuged and resuspended in phosphate-buffered saline (PBS 1×, pH 7.4), before analyzing them by means of FACS. The cells were analyzed using FACScalibur (Becton Dickinson) with the flow rate corresponding to approximately 500 events/s. In order to exactly define a cell population and to exclude cell debris and aggregates, a region of interest was established on the dot plot (FSC compared to SSC). In the two-parameter histogram of propidium iodide, dead cells were distinguished by comparison to forward angle light scatter (FSC). The fluorescence intensity of individual cells was measured on a logarithmic scale, each logarithmic histogram representing 2×10^4 counted events. The fluorescence intensity mean value (MFI) was the parameter used for defining the increase in the fluorescence intensity in each cell population.

U87H-GFP [7] = assay: Toxicity, number of living cells observed by FACS; conditions: final TSA concentrations of more than 3 μM (data not shown)
Method: In order to prepare samples for FACS analysis, cells were incubated in the 6-well plates in 0.05% trypsin containing 0.5 mM EDTA (Gibco, BRL) at 37° C. for 5 min, followed by stopping the trypsin action by adding two volumes of culture medium. The cells were harvested, centrifuged at 500×g for 5 min and resuspended in 1 ml complete D-MEM. In order to stain dead cells, propidium iodide (final concentration 10 μg/ml) was added to each sample. The cells were then again centrifuged and resuspended in phosphate-buffered saline (PBS 1×, pH 7.4), before analyzing them by means of FACS.
In order to exactly define a cell population and to exclude cell debris and aggregates, a region of interest was established on the dot plot (FSC compared to SSC). In the two-parameter histogram of propidium iodide, dead cells were distinguished by comparison to forward angle light scatter (FSC). The fluorescence intensity of individual cells was measured on a logarithmic scale, each logarithmic histogram representing 2×10^4 counted events. The fluorescence intensity mean value (MFI) was the parameter used for defining the increase in the fluorescence intensity in each cell population.

[8] = U87H-GFP, listed as Azacytidine

Nc1ncn([C@@H]2O[C@H](CO)[C@@H](O)[C@H]2O)c(=O)n1 [Aza, 5′-azacytidine]
increase in the green fluorescent signal (U87H-GFP [1]; 20 μM Aza): clearly defined | upregulation of the CMV promoter, visible due to increased GFP fluorescence (U87H-GFP [1]): very strong upregulation | change in the morphology of the cells (tumor cells U87): a change in the morphology of the cells was observed | Percentages of cells in G1-G0 (U87 [2]): 62.61 ± 0.47% | Percentages of cells in G2 (U87 [2]): 13.1 ± 2.36% | Percentages of cells in M (U87 [2]): 10.58 ± 2.85% | Percentages of cells in S (U87 [2]): 13.54 ± 1.25% | changes in the cell cycle phases (U87 [2]): significant changes | shift of FACS fluorescence profile (U87 [3]; 20 μM Aza): small shift | increase in the fluorescence intensity mean value (U87 [3]; highest concentration used (40 μM Aza)): approximately two-fold; also recorded: less than twice | Percentages of cells in G1-G0 (U87H-GFP [4]; U87 H-GFP): 61.53 ± 4.06 % | Percentages of cells in G2 (U87H-GFP [4]; U87 H-GFP): 8.77 ± 1.44% | Percentages of cells in M (U87H-GFP [4]; U87 H-GFP): 16.26 ± 2.83 % | Percentages of cells in S (U87H-GFP [4]; U87 H-GFP): 13.3 ± 3.26 % | change in percentage of cells in G2 versus untreated (U87H-GFP [4]; U87 H-GFP): increased number | effect on different cell cycle phases (apart from G2) (U87H-GFP [4]; U87 H-GFP): no significant differences | change in percentage of cells in G2 versus untreated (U87H-GFP [4]; [8]): small increase | effect on different cell cycle phases (apart from G2) (U87H-GFP [4]; [8]): no significant effect | shift of FACS fluorescence profile toward higher fluorescence intensity (U87H-GFP [5]; 0.5 μM Aza, 48 h): completely superpose those of the untreated cells | increase in the fluorescence intensity mean value (U87H-GFP [5]; 1 μM Aza alone, 48 h, compared to untreated cells): approximately two-fold; also recorded: about a two-fold | shift in the fluorescence intensity average (U87H-GFP [5]; Aza retained for 144 h, identical final concentrations, versus 48 h experiment (data not shown)): same shift | shift of FACS fluorescence profile toward higher fluorescence intensity (U87H-GFP [6]; 2.5 μM Aza): already clearly visible | increase in the fluorescence intensity mean value (U87H-GFP [6]; 2.5 μM Aza): two-fold | shift of FACS fluorescence profile toward higher fluorescence intensity (U87H-GFP [6]; 20 μM Aza): clearly visible; also recorded: well defined | increase in the fluorescence intensity mean value (U87H-GFP [6]; 20 μM Aza): three-fold

CC(/C=C/C(=O)NO)=C\[C@@H](C)C(=O)c1ccc(N(C)C)cc1 [TSA, trichostatin A]
increase in the green fluorescent signal (U87H-GFP [1]; 1 μM TSA): clearly defined | upregulation of the CMV promoter, visible due to increased GFP fluorescence (U87H-GFP [1]): very strong upregulation | toxicity, number of living cells (U87H-GFP [7]): highly toxic | change in the morphology of the cells (tumor cells U87): a change in the morphology of the cells was observed | shift of FACS fluorescence profile (U87 [3]; 1 μM TSA): small shift | increase in fluorescence (U87 [3]; 3 μM TSA): two-fold | shift of FACS fluorescence profile / increase in H-GFP gene expression (U87H-GFP [6]; 100 nM TSA): completely superpose those of the untreated cells; also recorded: does not induce in any way an increase | increase in the fluorescence intensity mean value (U87H-GFP [6]; 200 nM TSA alone): approximately two-fold; also recorded: about a two-fold | increase in the fluorescence intensity (U87H-GFP [6]; 500 nM TSA): slight but significant increase | shift of FACS fluorescence profile toward higher fluorescence intensity (U87H-GFP [6]; 1 μM TSA): clearly visible; also recorded: attains a saturation threshold | increase in the fluorescence intensity mean value (U87H-GFP [6]; 1 μM TSA): three-fold | increase in the fluorescence intensity mean value (U87H-GFP [6]; 3 μM TSA): four-fold | increase in the fluorescence intensity (U87H-GFP [6]; TSA concentrations lower than 500 nM): not at the lower concentrations used

— patent US8568972B2, “Substances causing differentiation” (Medicyte GmbH, priority 2000, dated 2013)
